{"source": "patent US6437184B1", "about": "“Oxime compounds, their use, and intermediates for their production” (Sumitomo Chemical Company, Limited, priority 1997, dated 2002)", "data": [{"test_system": "Musca domestica", "experiment": "Insecticidal test against Musca domestica", "format": "in vivo", "conditions": "24 h", "experimental": "(§1) In the bottom of a polyethylene cup having a diameter of 5.5 cm was placed a piece of filter paper having the same size. A 200-fold water dilution (500 ppm) of a test compound formulation obtained according to Formulation Example 1 was added dropwise at a volume of 0.7 ml on the filter paper, and about 30 mg of sucrose as a diet was uniformly placed thereon. Ten female adults of houseflies (Musca domestica) were set free in the cup, and the cup was kept covered. After 1 day, the survival of the adults was determined to determine the mortality.", "units": {"mortality at 500 µg/mL": "%"}, "values": [{"smiles": "CC(COCCCCCOc1c(Cl)cc(OCC=C(Cl)Cl)cc1Cl)=NOC(=O)NC(C)(C)C", "note": "[(180), 5-(2,6-dichloro-4-(3,3-dichloro-2-propenyloxy)phenoxy)pentyloxyacetone O-(N-tert-butylcarbamoyl)oxime]", "mortality at 500 µg/mL": "≥ 80"}]}, {"test_system": "Musca domestica", "experiment": "Insecticidal test against Musca domestica", "format": "in vivo", "conditions": "24 h, 500 ppm water dilution, 0.7 ml on filter paper with sucrose, female adults, after 1 day, read-out: mortality", "experimental": "as §1", "units": {"mortality at 500 µg/mL": "%"}, "values": [{"smiles": "CCON=Cc1cccc(COc2c(Cl)cc(OCC=C(Cl)Cl)cc2Cl)c1", "note": "[(378), 3-((2,6-dichloro-4-(3,3-dichloro-2-propenyloxy)phenoxy)methyl)benzaldehyde O-ethyloxime]", "mortality at 500 µg/mL": "≥ 80"}, {"smiles": "CC(C)(C)C=NOCCCCCOc1c(Cl)cc(OCC=C(Cl)Cl)cc1Cl", "note": "[(545), trimethylacetaldehyde O-(5-(2,6-dichloro-4-(3,3-dichloro-2-propenyloxy)phenoxy)pentyl)oxime]", "mortality at 500 µg/mL": "≥ 80"}]}, {"test_system": "Helicoverpa armigera", "experiment": "Insecticidal test against Helicoverpa armigera", "format": "in vivo", "conditions": "120 h, 100 ppm water dilution, cotton leaf fragment immersed 10 seconds, third-instar larvae, after 5 days", "experimental": "A cotton leaf fragment (diameter, 5 cm) was immersed for 10 seconds Lin a water dilution (100 ppm) of a test compound formulation obtained according to Formulation Example 1. This fragment was taken out from the dilution, air dried, and placed in a polyethylene cup having a diameter of 5.5 cm. One third-instar larva of Helicoverpa armigera was set free in each cup. Ten larvae were used for each treatment. After 5 days, the mortality of the larvae was determined.", "units": {"mortality at 100 µg/mL": "%"}, "values": [{"smiles": "FC(F)(F)c1ccc(C=NOCCCCOc2c(Cl)cc(OCC=C(Cl)Cl)cc2Cl)cc1", "note": "[(529), 4-(trifluoromethyl)benzaldehyde O-(4-(2,6-dichloro-4-(3,3-dichloro-2-propenyloxy)phenoxy)butyl)oxime]", "mortality at 100 µg/mL": "≥ 80"}, {"smiles": "CC(=NOCCCCOc1c(Cl)cc(OCC=C(Cl)Cl)cc1Cl)c1ccc(C(F)(F)F)cc1", "note": "[(531), 4′-(trifluoromethyl)acetophenone O-(4-(2,6-dichloro-4-(3,3-dichloro-2-propenyloxy)phenoxy)butyl)oxime]", "mortality at 100 µg/mL": "≥ 80"}, {"smiles": "ClC(Cl)=CCON=CCCCCOc1c(Cl)cc(OCC=C(Cl)Cl)cc1Cl", "note": "[(17), 5-(2,6-dichloro-4-(3,3-dichloro-2-propenyloxy)phenoxy)pentanal O-(3,3-dichloro-2-propenyl)oxime]", "mortality at 100 µg/mL": "≥ 80"}, {"smiles": "ClC(Cl)=CCON=Cc1ccc(CCOc2c(Cl)cc(OCC=C(Cl)Cl)cc2Cl)cc1", "note": "[(358), 4-(2-(2,6-dichloro-4-(3,3-dichloro-2-propenyloxy)phenoxy)ethyl)benzaldehyde O-(3,3-dichloro-2-propenyl)oxime]", "mortality at 100 µg/mL": "≥ 80"}, {"smiles": "CC(=NOCCCCOc1c(Cl)cc(OCC=C(Cl)Cl)cc1Cl)C(C)(C)C", "note": "[(562), 3,3-dimethyl-2-butanone O-(4-(2,6-dichloro-4-(3,3-dichloro-2-propenyloxy)phenoxy)butyl)oxime]", "mortality at 100 µg/mL": "≥ 80"}, {"smiles": "CCON=Cc1ccc(OCCCOc2c(Cl)cc(OCC=C(Cl)Cl)cc2Cl)cc1", "note": "[(288), 4-(3-(2,6-dichloro-4-(3,3-dichloro-2-propenyloxy)phenoxy)propyloxy)benzaldehyde O-ethyloxime]", "mortality at 100 µg/mL": "≥ 80"}, {"smiles": "C=CCON=Cc1ccc(COc2c(Cl)cc(OCC=C(Cl)Cl)cc2Cl)cc1", "note": "[(312), 4-(2,6-dichloro-4-(3,3-dichloro-2-propenyloxy)phenoxymethyl)benzaldehyde O-(2-propenyl)oxime]", "mortality at 100 µg/mL": "≥ 80"}, {"smiles": "CC(CC(C)C)=NOCCCCCOc1c(Cl)cc(OCC=C(Cl)Cl)cc1Cl", "note": "[(564), 4-methyl-2-pentanone O-(5-(2,6-dichloro-4-(3,3-dichloro-2-propenyloxy)phenoxy)pentyl)oxime]", "mortality at 100 µg/mL": "≥ 80"}, {"smiles": "C=CCON=Cc1ccc(OCCCOc2c(Cl)cc(OCC=C(Cl)Cl)cc2Cl)cc1", "note": "[(342), 4-(3-(2,6-dichloro-4-(3,3-dichloro-2-propenyloxy)phenoxy)propyloxy)benzaldehyde O-allyloxime]", "mortality at 100 µg/mL": "≥ 80"}, {"smiles": "CCC(C)ON=Cc1ccc(COc2c(Cl)cc(OCC=C(Cl)Cl)cc2Cl)cc1", "note": "(stereo not drawn) [(329), 4-(2,6-dichloro-4-(3,3-dichloro-2-propenyloxy)phenoxy)methylbenzaldehyde O-sec-butyloxime]", "mortality at 100 µg/mL": "≥ 80"}, {"smiles": "CC(C)(C)C=NOCCCCCOc1c(Cl)cc(OCC=C(Cl)Cl)cc1Cl", "note": "[(545), trimethylacetaldehyde O-(5-(2,6-dichloro-4-(3,3-dichloro-2-propenyloxy)phenoxy)pentyl)oxime]", "mortality at 100 µg/mL": "≥ 80"}, {"smiles": "C=CCON=Cc1ccc(CCOc2c(Cl)cc(OCC=C(Cl)Cl)cc2Cl)cc1", "note": "[(357), 4-(2-(2,6-dichloro-4-(3,3-dichloro-2-propenyloxy)phenoxy)ethyl)benzaldehyde O-allyloxime]", "mortality at 100 µg/mL": "≥ 80"}, {"smiles": "CCC(C)ON=Cc1ccc(CCOc2c(Cl)cc(OCC=C(Cl)Cl)cc2Cl)cc1", "note": "(stereo not drawn) [(355), 4-(2-(2,6-dichloro-4-(3,3-dichloro-2-propenyloxy)phenoxy)ethyl)benzaldehyde O-sec-butyloxime]", "mortality at 100 µg/mL": "≥ 80"}, {"smiles": "CC(C)(C)ON=Cc1ccc(OCCCOc2c(Cl)cc(OCC=C(Cl)Cl)cc2Cl)cc1", "note": "[(291), 4-(3-(2,6-dichloro-4-(3,3-dichloro-2-propenyloxy)phenoxy)propyloxy)benzaldehyde O-t-butyloxime]", "mortality at 100 µg/mL": "≥ 80"}, {"smiles": "CC(C)(C)ON=CCOCCCCCOc1c(Cl)cc(OCC=C(Cl)Cl)cc1Cl", "note": "[(14), 5-(2,6-dichloro-4-(3,3-dichloro-2-propenyloxy)phenoxy)pentyloxyacetaldehyde O-tert-butyloxime]", "mortality at 100 µg/mL": "≥ 80"}]}, {"test_system": "Plutella xylostella", "experiment": "Insecticidal test against Plutella xylostella", "format": "in vivo", "conditions": "96 h", "experimental": "(§2) To a water dilution (50 ppm) of a test compound formulation obtained according to Formulation Example 1 was added a spreading agent (New RINOU available from Nihon Noyaku K.K.) at a dilution ratio of 3000-fold. The dilution was sprayed over potted cabbages at the four to five leaf stage at a volume of 25 ml per pot. After the treated plants were air dried, ten third-instar larvae of Plutella xylostella were set free on each pot. After 4 days, the mortality was determined.", "units": {"mortality at 50 µg/mL": "%"}, "values": [{"smiles": "CC(COCCCCCOc1c(Cl)cc(OCC=C(Cl)Cl)cc1Cl)=NOC(=O)NC(C)(C)C", "note": "[(180), 5-(2,6-dichloro-4-(3,3-dichloro-2-propenyloxy)phenoxy)pentyloxyacetone O-(N-tert-butylcarbamoyl)oxime]", "mortality at 50 µg/mL": "≥ 80"}]}, {"test_system": "Plutella xylostella", "experiment": "Insecticidal test against Plutella xylostella", "format": "in vivo", "conditions": "96 h, 50 ppm water dilution sprayed over potted cabbages, 25 ml per pot, third-instar larvae, after 4 days, read-out: mortality", "experimental": "as §2", "units": {"mortality at 50 µg/mL": "%"}, "values": [{"smiles": "CCCCC(=NO)c1cccc(OCCCOc2c(Cl)cc(OCC=C(Cl)Cl)cc2Cl)c1", "note": "[(336), 3′-(3-(2,6-dichloro-4-(3,3-dichloro-2-propenyloxy)phenoxy)propyloxy)valerophenone oxime]", "mortality at 50 µg/mL": "≥ 80"}, {"smiles": "CC(=NO)c1ccc(OCCCCCOc2c(Cl)cc(OCC=C(Cl)Cl)cc2Cl)cc1", "note": "[(334), 4′-(5-(2,6-dichloro-4-(3,3-dichloro-2-propenyloxy)phenoxy)-pentyloxy)acetophenone oxime]", "mortality at 50 µg/mL": "≥ 80"}, {"smiles": "FC(F)(F)c1ccc(C=NOCCCOc2c(Cl)cc(OCC=C(Cl)Cl)cc2Cl)cc1", "note": "[(524), 4-(trifluoromethyl)benzaldehyde O-(3-(2,6-dichloro-4-(3,3-dichloro-2-propenyloxy)phenoxy)propyl)oxime]", "mortality at 50 µg/mL": "≥ 80"}, {"smiles": "ClC(Cl)=CCOc1cc(Cl)c(OCCCCON=C2CCOCC2)c(Cl)c1", "note": "[(573), tetrahydro-4H-pyran-4-one O-(4-(2,6-dichloro-4-(3,3-dichloro-2-propenyloxy)phenoxy)butyl)oxime]", "mortality at 50 µg/mL": "≥ 80"}, {"smiles": "C=CCON=Cc1ccc(CCCOc2c(Cl)cc(OCC=C(Cl)Cl)cc2Cl)cc1", "note": "[(370), 4-(3-(2,6-dichloro-4-(3,3-dichloro-2-propenyloxy)phenoxy)propyl)benzaldehyde O-allyl oxime]", "mortality at 50 µg/mL": "≥ 80"}, {"smiles": "ClC(Cl)=CCON=Cc1ccc(OCCCCOc2c(Cl)cc(OCC=C(Cl)Cl)cc2Cl)cc1", "note": "[(285), 4-(4-(2,6-dichloro-4-(3,3-dichloro-2-propenyloxy)phenoxy)butyloxy)benzaldehyde O-(3,3-dichloro-2-propenyl)oxime]", "mortality at 50 µg/mL": "≥ 80"}, {"smiles": "ClC(Cl)=CCON=CCCOc1c(Cl)cc(OCC=C(Cl)Cl)cc1Cl", "note": "[(75), 3-(2,6-dichloro-4-(3,3-dichloro-2-propenyloxy)phenoxy)propionaldehyde O-(3,3-dichloro-2-propenyl)oxime]", "mortality at 50 µg/mL": "≥ 80"}, {"smiles": "ClC(Cl)=CCOc1cc(Cl)c(OCCCCCON=C2CCOCC2)c(Cl)c1", "note": "[(574), tetrahydro-4H-pyran-4-one O-(5-(2,6-dichloro-4-(3,3-dichloro-2-propenyloxy)phenoxy)pentyl)oxime]", "mortality at 50 µg/mL": "≥ 80"}, {"smiles": "ClC(Cl)=CCON=Cc1ccc(OCCOc2c(Cl)cc(OCC=C(Cl)Cl)cc2Cl)cc1", "note": "[(281), 4-(2-(2,6-dichloro-4-(3,3-dichloro-2-propenyloxy)phenoxy)-ethoxy)benzaldehyde O-(3,3-dichloro-2-propenyl)oxime]", "mortality at 50 µg/mL": "≥ 80"}]}, {"test_system": "Cydia pomonella", "experiment": "Insecticidal test against Cydia pomonella", "format": "in vivo", "conditions": "168 h, 100 ppm water dilution, 0.2 ml on surface of artificial diet, eggs just before hatching, after 7 days", "experimental": "A water dilution (100 ppm) of a test compound formulation obtained according to Formulation Example 1 was added dropwise at a volume of 0.2 ml and spread over the surface of an artificial diet having a weight of 3 g, which had been prepared in a 30 ml polyethylene cup. After air drying, placed in the cup was a piece of wax paper (about 2.5 cm square) having about 20 eggs which had been laid by Cydia pomonella and were just before hatching. Four pieces of such wax paper were used for each treatment. After 7 days, the mortality of the larvae was determined.", "units": {"mortality at 100 µg/mL": "%"}, "values": [{"smiles": "CCON=Cc1cccc(COc2c(Cl)cc(OCC=C(Cl)Cl)cc2Cl)c1", "note": "[(378), 3-((2,6-dichloro-4-(3,3-dichloro-2-propenyloxy)phenoxy)methyl)benzaldehyde O-ethyloxime]", "mortality at 100 µg/mL": "≥ 80"}, {"smiles": "ClC(Cl)=CCOc1cc(Cl)c(OCCCCCON=C2CCOCC2)c(Cl)c1", "note": "[(574), tetrahydro-4H-pyran-4-one O-(5-(2,6-dichloro-4-(3,3-dichloro-2-propenyloxy)phenoxy)pentyl)oxime]", "mortality at 100 µg/mL": "≥ 80"}, {"smiles": "O=[N+]([O-])c1ccc(C=NOCCCCOc2c(Cl)cc(OCC=C(Cl)Cl)cc2Cl)cc1", "note": "[(578), 4-nitrobenzaldehyde O-(4-(2,6-dichloro-4-(3,3-dichloro-2-propenyloxy)phenoxy)butyl)oxime]", "mortality at 100 µg/mL": "≥ 80"}, {"smiles": "ClC(Cl)=CCOc1cc(Cl)c(OCCCCCON=C2CCSCC2)c(Cl)c1", "note": "[(572), tetrahydrothiopyran-4-one O-(5-(2,6-dichloro-4-(3,3-dichloro-2-propenyloxy)phenoxy)pentyl)oxime]", "mortality at 100 µg/mL": "≥ 80"}, {"smiles": "ClC(Cl)=CCOc1cc(Cl)c(OCCCC=NOCC=C(Br)Br)c(Cl)c1", "note": "[(25), 4-(2,6-dichloro-4-(3,3-dichloro-2-propenyloxy)phenoxy)butanal O-(3,3-dibromo-2-propenyl)oxime]", "mortality at 100 µg/mL": "≥ 80"}, {"smiles": "CC(C)CON=Cc1cccc(COc2c(Cl)cc(OCC=C(Cl)Cl)cc2Cl)c1", "note": "[(381), 3-((2,6-dichloro-4-(3,3-dichloro-2-propenyloxy)phenoxy)methyl)benzaldehyde O-iso-butyloxime]", "mortality at 100 µg/mL": "≥ 80"}, {"smiles": "CC(=NOCC=C(Br)Br)c1ccc(OCCCCOc2c(Cl)cc(OCC=C(Cl)Cl)cc2Cl)cc1", "note": "[(300), 4′-(4-(2,6-dichloro-4-(3,3-dichloro-2-propenyloxy)phenoxy)butyloxy)acetophenone O-(3,3-dibromo-2-propenyl)oxime]", "mortality at 100 µg/mL": "≥ 80"}, {"smiles": "ClC(Cl)=CCOc1cc(Cl)c(OCCCC=NOCc2ccccc2)c(Cl)c1", "note": "[(27), 4-(2,6-dichloro-4-(3,3-dichloro-2-propenyloxy)phenoxy)butanal O-benzyloxime]", "mortality at 100 µg/mL": "≥ 80"}]}]}
